Read-outs that look alike come from different tables or passages of the source.
What was measured:
Experiment in all cases: biochemical
Type in all cases: biochemical
panel of 391 kinases [1] = target: panel of 391 kinases (Homo sapiens, UniProt P14616); conditions: IRR/INSRR, MK-28 1 µM, ATP 1 µM
panel of 391 kinases [2] = target: panel of 391 kinases (Homo sapiens, UniProt Q9BXA6); conditions: SSTK/TSSK6, MK-28 1 µM, ATP 1 µM
panel of 391 kinases [3] = target: panel of 391 kinases (Homo sapiens, UniProt Q9HCP0); conditions: CK1g1, MK-28 1 µM, ATP 1 µM
panel of 391 kinases [4] = target: panel of 391 kinases (Homo sapiens, UniProt P51955); conditions: NEK2, MK-28 1 µM, ATP 1 µM
panel of 391 kinases [5] = target: panel of 391 kinases (Homo sapiens, UniProt O43318); conditions: TAK1, MK-28 1 µM, ATP 1 µM
panel of 391 kinases [6] = target: panel of 391 kinases (Homo sapiens, UniProt Q9UKE5); conditions: TNIK, MK-28 1 µM, ATP 1 µM
panel of 391 kinases [7] = target: panel of 391 kinases (Homo sapiens, UniProt Q86V86); conditions: PIM3, MK-28 1 µM, ATP 1 µM
panel of 391 kinases [8] = target: panel of 391 kinases (Homo sapiens, UniProt Q86YV6); conditions: MYLK4, MK-28 1 µM, ATP 1 µM
panel of 391 kinases [9] = target: panel of 391 kinases (Homo sapiens, UniProt P36897); conditions: ALK5/TGFBR1, MK-28 1 µM, ATP 1 µM
panel of 391 kinases [10] = target: panel of 391 kinases (Homo sapiens, UniProt Q86UE8); conditions: TLK2, MK-28 1 µM, ATP 1 µM
panel of 391 kinases [11] = target: panel of 391 kinases (Homo sapiens, UniProt Q13188); conditions: MST2/STK3, MK-28 1 µM, ATP 1 µM
panel of 391 kinases [12] = target: panel of 391 kinases (Homo sapiens, UniProt Q07002); conditions: CDK18/cyclin Y (PCTK3), MK-28 1 µM, ATP 1 µM
panel of 391 kinases [13] = target: panel of 391 kinases (Homo sapiens, UniProt P48729); conditions: CK1a1, MK-28 1 µM, ATP 1 µM
panel of 391 kinases [14] = target: panel of 391 kinases (Homo sapiens, UniProt P42681); conditions: TXK, MK-28 1 µM, ATP 1 µM
panel of 391 kinases [15] = target: panel of 391 kinases (Homo sapiens, UniProt O00238); conditions: ALK6/BMPR1B, MK-28 1 µM, ATP 1 µM
panel of 391 kinases [16] = target: panel of 391 kinases (Homo sapiens, UniProt Q05397); conditions: FAK/PTK2, MK-28 1 µM, ATP 1 µM
panel of 391 kinases [17] = target: panel of 391 kinases (Homo sapiens, UniProt P51813); conditions: BMX/ETK, MK-28 1 µM, ATP 1 µM
panel of 391 kinases [18] = target: panel of 391 kinases (Homo sapiens, UniProt Q04912); conditions: RON/MST1R, MK-28 1 µM, ATP 1 µM
panel of 391 kinases [19] = target: panel of 391 kinases (Homo sapiens, UniProt P50750); conditions: MK-28 1 µM, ATP 1 µM; for remaining activity at 1 µM: read-out: % Enzyme Activity (relative to DMSO controls)
panel of 391 kinases [20] = target: panel of 391 kinases (Homo sapiens, UniProt P57078); conditions: RIPK4, MK-28 1 µM, ATP 1 µM
panel of 391 kinases [21] = target: panel of 391 kinases (Homo sapiens, UniProt Q8IVH8); conditions: GLK/MAP4K3, MK-28 1 µM, ATP 1 µM
panel of 391 kinases [22] = target: panel of 391 kinases (Homo sapiens, UniProt Q9H093); conditions: SNARK/NUAK2, MK-28 1 µM, ATP 1 µM
panel of 391 kinases [23] = target: panel of 391 kinases (Homo sapiens, UniProt Q8IU85); conditions: CAMK1d, MK-28 1 µM, ATP 1 µM
panel of 391 kinases [24] = target: panel of 391 kinases (Homo sapiens, UniProt P11802); conditions: MK-28 1 µM, ATP 1 µM; for remaining activity at 1 µM: read-out: % Enzyme Activity (relative to DMSO controls)
panel of 391 kinases [25] = target: panel of 391 kinases (Homo sapiens, UniProt P45985); conditions: MKK4, MK-28 1 µM, ATP 1 µM
[26] = read-out: % Enzyme Activity (relative to DMSO controls)

CN(/N=C\c1ccc(O)c(O)c1)c1nc(-c2ccccc2)cc(-c2ccccc2)n1 [MK-28]
% Enzyme Activity (relative to DMSO controls) (panel of 391 kinases [1]): 82.69%
remaining activity at 1 µM (panel of 391 kinases [1]; [26]): 85.9%
% Enzyme Activity (relative to DMSO controls) (panel of 391 kinases [2]): 97.30%
remaining activity at 1 µM (panel of 391 kinases [2]; [26]): 97.6%
% Enzyme Activity (relative to DMSO controls) (panel of 391 kinases [3]): 78.20%
remaining activity at 1 µM (panel of 391 kinases [3]; [26]): 80%
% Enzyme Activity (relative to DMSO controls) (panel of 391 kinases [4]): 98.55%
remaining activity at 1 µM (panel of 391 kinases [4]; [26]): 99.2%
% Enzyme Activity (relative to DMSO controls) (panel of 391 kinases [5]): 97.66%
remaining activity at 1 µM (panel of 391 kinases [5]; [26]): 97.9%
% Enzyme Activity (relative to DMSO controls) (panel of 391 kinases [6]): 100.50%
remaining activity at 1 µM (panel of 391 kinases [6]; [26]): 102%
% Enzyme Activity (relative to DMSO controls) (panel of 391 kinases [7]): 87.24%
remaining activity at 1 µM (panel of 391 kinases [7]; [26]): 89.2%
% Enzyme Activity (relative to DMSO controls) (panel of 391 kinases [8]): 92.82%
remaining activity at 1 µM (panel of 391 kinases [8]; [26]): 97.6%
% Enzyme Activity (relative to DMSO controls) (panel of 391 kinases [9]): 96.61%
remaining activity at 1 µM (panel of 391 kinases [9]; [26]): 97.7%
% Enzyme Activity (relative to DMSO controls) (panel of 391 kinases [10]): 101.04%
remaining activity at 1 µM (panel of 391 kinases [10]; [26]): 102%
% Enzyme Activity (relative to DMSO controls) (panel of 391 kinases [11]): 100.15%
remaining activity at 1 µM (panel of 391 kinases [11]; [26]): 101%
% Enzyme Activity (relative to DMSO controls) (panel of 391 kinases [12]): 109.27%
remaining activity at 1 µM (panel of 391 kinases [12]; [26]): 111%
% Enzyme Activity (relative to DMSO controls) (panel of 391 kinases [13]): 98.77%
remaining activity at 1 µM (panel of 391 kinases [13]; [26]): 99.5%
% Enzyme Activity (relative to DMSO controls) (panel of 391 kinases [14]): 93.01%
remaining activity at 1 µM (panel of 391 kinases [14]; [26]): 94.1%
% Enzyme Activity (relative to DMSO controls) (panel of 391 kinases [15]): 100.96%
remaining activity at 1 µM (panel of 391 kinases [15]; [26]): 101%
% Enzyme Activity (relative to DMSO controls) (panel of 391 kinases [16]): 97.96%
remaining activity at 1 µM (panel of 391 kinases [16]; [26]): 98.1%
% Enzyme Activity (relative to DMSO controls) (panel of 391 kinases [17]): 100.53%
remaining activity at 1 µM (panel of 391 kinases [17]; [26]): 102%
% Enzyme Activity (relative to DMSO controls) (panel of 391 kinases [18]): 102.49%
remaining activity at 1 µM (panel of 391 kinases [18]; [26]): 104%
% Enzyme Activity (relative to DMSO controls) (panel of 391 kinases [19]; CDK9/cyclin K): 95.35%
remaining activity at 1 µM (panel of 391 kinases [19]; CDK9/cyclin K): 96.1%
% Enzyme Activity (relative to DMSO controls) (panel of 391 kinases [19]; CDK9/cyclin T1): 83.98%
remaining activity at 1 µM (panel of 391 kinases [19]; CDK9/cyclin T1): 84.2%
% Enzyme Activity (relative to DMSO controls) (panel of 391 kinases [19]; CDK9/cyclin T2): 97.55%
remaining activity at 1 µM (panel of 391 kinases [19]; CDK9/cyclin T2): 103%
% Enzyme Activity (relative to DMSO controls) (panel of 391 kinases [20]): 89.94%
remaining activity at 1 µM (panel of 391 kinases [20]; [26]): 95.1%
% Enzyme Activity (relative to DMSO controls) (panel of 391 kinases [21]): 94.50%
remaining activity at 1 µM (panel of 391 kinases [21]; [26]): 95.9%
% Enzyme Activity (relative to DMSO controls) (panel of 391 kinases [22]): 94.11%
remaining activity at 1 µM (panel of 391 kinases [22]; [26]): 95.6%
% Enzyme Activity (relative to DMSO controls) (panel of 391 kinases [23]): 86.95%
remaining activity at 1 µM (panel of 391 kinases [23]; [26]): 87.6%
% Enzyme Activity (relative to DMSO controls) (panel of 391 kinases [24]; CDK4/cyclin D1): 95.51%
remaining activity at 1 µM (panel of 391 kinases [24]; CDK4/cyclin D1): 95.6%
% Enzyme Activity (relative to DMSO controls) (panel of 391 kinases [24]; CDK4/cyclin D3): 98.69%
remaining activity at 1 µM (panel of 391 kinases [24]; CDK4/cyclin D3): 100%
% Enzyme Activity (relative to DMSO controls) (panel of 391 kinases [25]): 102.88%
remaining activity at 1 µM (panel of 391 kinases [25]; [26]): 103%

Source: PMC7181660, “A novel specific PERK activator reduces toxicity and extends survival in Huntington's disease models” (Scientific Reports, 2020)
